Assay results published in patent US5770382A, “Tricyclic retinoids, methods for their production and use” (Ligand Pharmaceuticals, Inc., priority 1995, dated 1998).

Legend:
Assay type in all cases: cell-based
[1] = molecular target: T1, RARβ (Homo sapiens, UniProt P10826); assay: Co-transfection assay, RARβ agonist activity; conditions: CV-1 cells, 40 hours; read-out: RARβ Pot (potency, EC50)
T1 construct: expressed in transfected cells; host or cells: CV-1 (African green monkey kidney fibroblasts)
T1 sequence (P10826 1-448 isoform P10826-2): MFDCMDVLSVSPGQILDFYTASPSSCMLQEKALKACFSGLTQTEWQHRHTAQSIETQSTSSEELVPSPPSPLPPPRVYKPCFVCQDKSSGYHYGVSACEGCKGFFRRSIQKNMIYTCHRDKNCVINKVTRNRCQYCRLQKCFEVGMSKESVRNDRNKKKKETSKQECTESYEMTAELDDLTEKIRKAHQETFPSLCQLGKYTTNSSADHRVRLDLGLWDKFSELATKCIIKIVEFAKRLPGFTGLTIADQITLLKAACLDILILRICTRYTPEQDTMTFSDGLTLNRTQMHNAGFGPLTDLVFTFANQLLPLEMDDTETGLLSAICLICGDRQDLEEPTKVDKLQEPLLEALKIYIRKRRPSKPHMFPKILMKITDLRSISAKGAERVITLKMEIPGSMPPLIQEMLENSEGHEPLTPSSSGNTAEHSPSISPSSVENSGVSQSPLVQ

[2] = molecular target: T2, RXRγ (Mus musculus, UniProt P28705); assay: Co-transfection assay, RXRγ agonist activity; conditions: CV-1 cells, 40 hours; read-out: RXRγ Pot (potency, EC50)
T2 construct: expressed in transfected cells; host or cells: CV-1 (African green monkey kidney fibroblasts)
T2 sequence (P28705 1-463): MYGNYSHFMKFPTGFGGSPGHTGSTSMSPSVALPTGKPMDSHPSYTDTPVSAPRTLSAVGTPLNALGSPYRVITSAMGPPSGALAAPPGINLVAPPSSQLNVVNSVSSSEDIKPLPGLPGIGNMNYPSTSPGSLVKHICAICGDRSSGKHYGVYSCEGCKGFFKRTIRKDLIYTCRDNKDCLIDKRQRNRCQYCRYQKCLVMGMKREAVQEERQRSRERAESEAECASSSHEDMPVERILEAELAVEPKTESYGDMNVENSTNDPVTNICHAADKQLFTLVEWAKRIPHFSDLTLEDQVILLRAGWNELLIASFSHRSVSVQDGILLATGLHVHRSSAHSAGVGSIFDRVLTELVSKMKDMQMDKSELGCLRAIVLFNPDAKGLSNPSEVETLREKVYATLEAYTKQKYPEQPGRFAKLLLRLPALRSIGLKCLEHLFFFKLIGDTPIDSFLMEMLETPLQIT

[3] = molecular target: T3, RXRβ (Mus musculus, UniProt P28704); assay: Co-transfection assay, RXRβ agonist activity; conditions: CV-1 cells, 40 hours; read-out: RXRβ Pot (potency, EC50)
T3 construct: expressed in transfected cells; host or cells: CV-1 (African green monkey kidney fibroblasts)
T3 sequence (P28704 1-520): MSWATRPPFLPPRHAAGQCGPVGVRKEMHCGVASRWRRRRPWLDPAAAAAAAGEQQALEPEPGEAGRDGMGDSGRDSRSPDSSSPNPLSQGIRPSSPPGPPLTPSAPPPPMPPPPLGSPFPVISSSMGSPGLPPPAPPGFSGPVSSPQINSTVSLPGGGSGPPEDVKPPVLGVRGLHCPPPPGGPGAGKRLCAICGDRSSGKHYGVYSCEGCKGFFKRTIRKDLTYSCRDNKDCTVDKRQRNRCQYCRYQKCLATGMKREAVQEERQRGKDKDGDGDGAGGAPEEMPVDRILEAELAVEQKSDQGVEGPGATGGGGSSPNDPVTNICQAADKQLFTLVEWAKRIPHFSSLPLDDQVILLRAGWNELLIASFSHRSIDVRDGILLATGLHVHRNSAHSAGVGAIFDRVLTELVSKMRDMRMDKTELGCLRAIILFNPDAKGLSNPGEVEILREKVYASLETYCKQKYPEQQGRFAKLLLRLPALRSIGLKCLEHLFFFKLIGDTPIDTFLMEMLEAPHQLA

With `CC(/C=C/C=C1/CC(C)(C)Oc2cc3c(cc21)C(C)(C)CCC3(C)C)=C\C(=O)O` [Compound 104b, (2E,4E)-3-Methyl-6-(2,3,6,7,8,9-hexahydro-2,2,6,6,9,9-hexamethylbenzo[b]-chromen-4-ylidene)-hexa-2,4-dienoic acid] the EC50 [1] was 61 nM, the EC50 [2] was 11 nM and the EC50 [3] was 20 nM.
